Measured values taken from patent publication US10849878B2 (OBSHCHESTVO S OGRANICHENNOY OTVETSTVENNOSTYU “NORMOFARM”, priority 2015, dated 2020).
Where “and” joins values, the source holds several entries; their conditions need not be identical. Equal entries are not always repeated. Where two headings read alike, the source gives them in different places.

Assays:
[1] = test system: white Wistar rats; experiment: suspension test (24 h), antistress and anxiolytic activity; assay type: in vivo, rat
Experimental: The anti-stress, anxiolytic and antidepressant effects of the claimed agent and compositions on its basis were determined as follows. […] The suspension test. Five animals from each group were used. Each animal was suspended for 24 hours. After that the sample of whole blood was taken from the sublingual vessels of that animal Then the animal was placed in a desiccator with diethyl ether. 60 minutes later a spinal decapitation of the animal was performed. The abdominal opening was performed and the number of ulcers on the inner surface of the stomach was counted. The obtained whole blood was placed in two test tubes. The whole blood was used to determine the number of eosinophils by the Duncker method. Serum was used to determine the biochemical composition of the blood. Adrenaline and norepinephrine were determined as biochemical indices. These characteristics are specific markers identifying the impact of stress factors of various etiologies. • 2. The transport stress simulation test. Five animals from each group were used. The animals were placed in cages fixed on a laboratory shutter. The duration of the test was 240 minutes. At the end of the test the animals were examined by the techniques described in paragraph 1. A sample of whole blood was taken to determine the number of eosinophils by the Duncker method. The blood serum was studied to measure the amount of enzymes: alanine aminotransferase (ALT), aspartate aminotransferase (AST), creatinine
The tests were carried out on 2-month-old rats of the Wistar line. The groups were selected according to the principle of paired counterparts.
During the course of the study the animals were selected from the formed groups of 10 animals each to participate in stress tests, 5 animals per test. The selection was made on the 7th, 14th, 21st day of the drug administration (experiments were performed on the same days right after selection). The animals were weighed weekly immediately before testing. The obtained data were processed by statistical methods of mathematical statistics. The drug was administered to the animals of the 2nd, 3rd and 4th groups in solution through a gastric tube. Water for injection produced by the “Bufus Novosibkhimpharm” was used as a solvent. The introduced volume was 1.5 ml. The solution was introduced at the same tine 2 hours after morning feeding. The first group was given water for injection by the same way. The volume of administration was 1.5 ml.
During the test a change in the reaction of the animals was observed during prolonged administration of the preparation. Three sequences of the experiment were performed with a periodicity of 7 days. The drug was administered from the first day of the study daily without a break. Thus, accumulation of the drug in the animal body occurred. Five animals from each group were used in each sequence of the experiment (the animals were suspended for 24 hours). After this, blood samples were taken from the sublingual vessels. Further, the animal was euthanized with diethyl ether. Decapitation and dissection of the abdominal cavity were performed to calculate the number of ulcers on the inner surface of the stomach. The rats as objects for the study of psychotropic drugs are a successful model. They react quickly to various stress factors. It is convenient to evaluate the efficacy of drugs due to various factors beginning with physiological, behavioral, biochemical and other parameters. In the suspension test, it is possible to determine the overall psycho-emotional state of the animal in addition to physical endurance.
The physiological, morphological and biochemical characteristics, such as the determination of ulcers in the stomach, eosinophils in whole blood, epinephrine and norepinephrine in blood serum were estimated as main and most informative indicators of the onset of a stress state in a living organism and of overall impact on the body. […]

[2] = test system: male Wistar rats; conditions: for Dead / Survived: 6 rats
[3] = test system: white Wistar rats; experiment: suspension test (24 h), antistress and anxiolytic activity; assay type: in vivo, rat; conditions: 60 mg/kg in the form of pills with cocoa, administration day 7
[4] = 30 mg/kg solution by gastric tube, administration day 7
[5] = 30 mg/kg solution by gastric tube, administration day 14
[6] = 30 mg/kg solution by gastric tube, administration day 21
[7] = 60 mg/kg in the form of pills with cocoa, administration day 7
[8] = 60 mg/kg in the form of pills with cocoa, administration day 14
[9] = 60 mg/kg in the form of pills with cocoa, administration day 21
[10] = 60 mg/kg solution by gastric tube, administration day 7
[11] = 60 mg/kg solution by gastric tube, administration day 14
[12] = 60 mg/kg solution by gastric tube, administration day 21
[13] = 120 mg/kg solution by gastric tube, administration day 7
[14] = 120 mg/kg solution by gastric tube, administration day 14
[15] = 120 mg/kg solution by gastric tube, administration day 21
[16] = single oral dose 6000 mg/kg, 6000 mg/kg
[17] = single oral dose 7000 mg/kg, 7000 mg/kg

O=C1O[C@H]([C@@H](O)CO)C([O-])=C1O.[Li+] [lithium ascorbate]
Adrenaline level in blood serum [1, 4]: 8.1 ± 0.52 µg/L | Eosinophil count in whole blood [1, 4]: 764 ± 6.5 | Noradrenaline level in blood serum [1, 4]: 24.3 ± 2.2 µg/L | Number of ulcers in the stomach [1, 4]: 4.5 ± 0.9 | Adrenaline level in blood serum [1, 5]: 6.9 ± 2.77 µg/L | Eosinophil count in whole blood [1, 5]: 897 ± 7.2 | Noradrenaline level in blood serum [1, 5]: 18.2 ± 5.28 µg/L | Number of ulcers in the stomach [1, 5]: 2.4 ± 0.2 | Adrenaline level in blood serum [1, 6]: 6.9 ± 0.97 µg/L | Eosinophil count in whole blood [1, 6]: 954 ± 9.7 | Noradrenaline level in blood serum [1, 6]: 17.9 ± 0.95 µg/L | Number of ulcers in the stomach [1, 6]: 1.9 ± 0.4 | Eosinophil count in whole blood [1, 7]: 653 ± 9.2 | Noradrenaline level in blood serum [1, 7]: 54.8 ± 10.4 µg/L | Number of ulcers in the stomach [1, 7]: 8.7 ± 1.2 | Adrenaline level in blood serum [1, 8]: 6.7 ± 0.96 µg/L | Eosinophil count in whole blood [1, 8]: 913 ± 0.9 | Noradrenaline level in blood serum [1, 8]: 18.4 ± 0.49 µg/L | Number of ulcers in the stomach [1, 8]: 1.6 ± 0.9 | Adrenaline level in blood serum [1, 9]: 7.9 ± 3.61 µg/L | Eosinophil count in whole blood [1, 9]: 954 ± 3.6 | Noradrenaline level in blood serum [1, 9]: 17.8 ± 0.98 µg/L | Number of ulcers in the stomach [1, 9]: 1.5 ± 0.6 | Adrenaline level in blood serum [1, 10]: 7.9 ± 0.21 µg/L | Eosinophil count in whole blood [1, 10]: 791 ± 1.2 | Noradrenaline level in blood serum [1, 10]: 22.1 ± 1.98 µg/L | Number of ulcers in the stomach [1, 10]: 4.1 ± 0.8 | Adrenaline level in blood serum [1, 11]: 7.1 ± 1.19 µg/L | Eosinophil count in whole blood [1, 11]: 866 ± 9.4 | Noradrenaline level in blood serum [1, 11]: 20.3 ± 3.49 µg/L | Number of ulcers in the stomach [1, 11]: 2.6 ± 0.4 | Adrenaline level in blood serum [1, 12]: 7.3 ± 2.14 µg/L | Eosinophil count in whole blood [1, 12]: 910 ± 4.1 | Noradrenaline level in blood serum [1, 12]: 19.3 ± 6.13 µg/L | Number of ulcers in the stomach [1, 12]: 2.4 ± 0.5 | Adrenaline level in blood serum [1, 13]: 7.6 ± 0.38 µg/L | Eosinophil count in whole blood [1, 13]: 768 ± 6.7 | Noradrenaline level in blood serum [1, 13]: 20.2 ± 5.67 µg/L | Number of ulcers in the stomach [1, 13]: 4.0 ± 0.5 | Adrenaline level in blood serum [1, 14]: 8.7 ± 3.82 µg/L | Eosinophil count in whole blood [1, 14]: 885 ± 3.8 | Noradrenaline level in blood serum [1, 14]: 20.3 ± 4.83 µg/L | Number of ulcers in the stomach [1, 14]: 2.5 ± 1.1 | Adrenaline level in blood serum [1, 15]: 9.6 ± 3.28 µg/L | Eosinophil count in whole blood [1, 15]: 911 ± 8.2 | Noradrenaline level in blood serum [1, 15]: 18.4 ± 5.27 µg/L | Number of ulcers in the stomach [1, 15]: 2.1 ± 0.7 | all measured characteristics versus the control group (group #1) ([1]; all the tests, oral aqueous solutions): 2.5-3.5 times | number of defecation acts, control animals versus treated animals ([1]; control more than treated): 3-4 times | ulcer count versus the control group (group #1) ([1]; oral aqueous solutions): more than 10 times | decrease in the level of adrenaline and norepinephrine ([1]; versus control): 3,5-4 times | LD100 ([2]; oral, white rats of the Wistar line): 8000 mg/kg | Dead, % ([2]; single oral dose 1000 mg/kg): 0% | Dead ([2]; single oral dose 1000 mg/kg): 0 | Survived ([2]; single oral dose 1000 mg/kg): 6 | Dead, % ([2]; single oral dose 2000 mg/kg): 0% | Dead ([2]; single oral dose 2000 mg/kg): 0 | Survived ([2]; single oral dose 2000 mg/kg): 6 | Dead, % ([2]; single oral dose 3000 mg/kg): 0% | Dead ([2]; single oral dose 3000 mg/kg): 0 | Survived ([2]; single oral dose 3000 mg/kg): 6 | Dead, % ([2]; single oral dose 4000 mg/kg): 0% | Dead ([2]; single oral dose 4000 mg/kg): 0 | Survived ([2]; single oral dose 4000 mg/kg): 6 | Dead, % ([2]; single oral dose 5000 mg/kg): 16.6% | Dead ([2]; single oral dose 5000 mg/kg): 1 | Survived ([2]; single oral dose 5000 mg/kg): 5 | Dead, % ([2]; single oral dose 6000 mg/kg): 50% | Dead [2, 16]: 3 and 3/3 | Survived [2, 16]: 3 and 3/3 | Dead, % ([2]; single oral dose 7000 mg/kg): 50% | Dead [2, 17]: 3 and 3/3 | Survived [2, 17]: 3 and 3/3 | Survived ([2]; single oral dose 8000 mg/kg): 0 | Adrenaline level in blood serum [3]: 22.6 ± 4.27 µg/L
